Here are results for 19 molecules from patent US7799829B2, “Acyloxyalkyl carbamate prodrugs of α-amino acids, methods of synthesis and use” (XenoPort, Inc., priority 2006, dated 2010).

Series [1] in a line: Bioavailability of α-amino acid following intracolonic administration of prodrugs in rats (intravenous α-amino acid as reference). In kind it is in vivo. The following applies: for colonic bioavailability of 1-aminocyclopropanecarboxylic acid: intracolonic administration of prodrug, 1-aminocyclopropanecarboxylic acid released post absorption. The method, then: Rats are obtained commercially and were pre-cannulated in the both the ascending colon and the jugular vein. Animals were conscious at the time of the experiment. All animals were fasted overnight and until 4 hours after dosing of an α-amino acid prodrug. An α-amino acid or the corresponding prodrug was administered as a solution (in water) directly into the colon via the cannula at a dose equivalent to about 75 mg or other appropriate dose of an α-amino acid per kg body weight. Blood samples (0.3 mL) were obtained from the jugular cannula at intervals over 8 hours and were quenched immediately by addition of sodium metabisulfite to prevent oxidation of the α-amino acid. Blood was then further quenched with methanol/perchloric acid to prevent hydrolysis of the prodrug. Blood samples were analyzed as described.
300 μL of methanol was added to 1.5 mL tubes. Rat or monkey blood (100 μL) was collected at different times into the tubes and vortexed to mix. 90 μL of blood was quenched with 300 μL methanol. 10 μL of a standard stock solution containing an α-amino acid (0.04, 0.2, 1, 5, 25, and 100 μg/mL) and 20 μL of p-chlorophenylalanine eas added to 90 μL of blood to make up a final calibration standard (0.004, 0.02, 0.1, 0.5, 2.5, and 10 μg/mL). Samples were vortexed and centrifuged at 3400 rpm for 20 min. The supernatant was analyzed by LC/MS/MS.
An API 4000 LC/MS/MS spectrometer equipped with Agilent 1100 binary pumps and a CTC HTS-PAL autosampler and an Agilent Zorbax Eclipse XBD-C8, 4.6×150 mm, 3.5 μM column was used for the analysis. The mobile phase was 0.02% heptafluorobutyric acid in water (A) and 0.02% heptafluorobutyric acid in acetonitrile (B). The flow rate was 1.0 mL/min. The gradient condition was: 5% B for 2 min, then to 10% B for 1 min. Then the mobile phase was returned to 5% B for 1.1 min. A TurboIonSpray source was used in the API 4000. The analysis was done in either negative ion mode or positive ion mode as appropriate and the MRM transition for each analyte was optimized using a standard solution. 20 μL of the samples were injected. Non-compartmental analysis was performed using WinNonlin software (v.3.1 Professional Version, Pharsight Corporation, Mountain View, Calif.) on individual animal profiles. Summary statistics on major parameter estimates was performed for Cmax (peak observed concentration following dosing), Tmax (time to maximum concentration is the time at which the peak concentration was observed), AUC(0-t) (area under the plasma concentration-time curve from time zero to last collection time, estimated using the log-linear trapezoidal method), AUC(0-∞), (area under the plasma concentration time curve from time zero to infinity, estimated using the log-linear trapezoidal method to the last collection time with extrapolation to infinity), and t1/2,z (terminal half-life).
The oral or intracolonic bioavailability (F) of an α-amino acid was determined by comparing the area under the α-amino acid concentration vs. time curve (AUC) following oral or intracolonic administration of α-amino acid or prodrug thereof with the AUC of the α-amino acid concentration vs. time curve following intravenous administration of the α-amino acid on a dose normalized basis (e.g., % Fic=AUC (following intracolonic administration of an α-amino acid prodrug)/AUC (following intravenous administration of an equivalent dose of the corresponding α-amino acid)). […] In monkeys, following, colonic administration of α-amino acid prodrug 2, the bioavailability of 1-aminocyclopropanecarboxylic acid was determined to be about 4-fold greater than after colonic administration of 1-aminocyclopropanecarboxylic acid itself (at 20 mg-eq/kg).

Usually melting point stands for the temperature, or range, at which the solid turns liquid. On to `O=C(Cc1ccccc1)OCCOC(=O)NC1(C(=O)O)CC1`, for which the melting point lay within 142.1 to 145.6 °C.
Regarding `NC1(C(=O)O)CC1` [1-aminocyclopropanecarboxylic acid, reference compound], the AUC(0-inf) in series [1] (rat, whole blood, intravenous, dosed at 20 mg-eq/kg, used as reference for bioavailability calculations, read-out: AUCinf for the intravenously administered α-amino acid) was 85900 ng·h/mL.
Molecule `CC(OC(=O)NC1(C(=O)O)CC1)OC(=O)C(C)C` (stereo not drawn) [Compound 1, 1-(1-Isobutyryloxy-ethoxycarbonylamino)-cyclopropanecarboxylic Acid] came in with a melting point of 127 to 129.5 °C.
`CC(C)C(=O)OC(OC(=O)NC1(C(=O)O)CC1)C(C)C` (stereo not drawn) [Compound 2, 1-(1-Isobutyryloxy-2-methyl-propoxycarbonylamino)-cyclopropanecarboxylic Acid]: the melting point is 127.4 to 129 °C. The “colonic bioavailability of 1-aminocyclopropanecarboxylic acid” value (from here on “colonic bioavailability”) in series [1] is reported as “substantial”.
Regarding `Cc1ccccc1C(=O)OCCOC(=O)NC1(C(=O)O)CC1` [Compound 3, 1-{[(2-Methylphenylcarbonyloxy)ethoxy]carbonylamino}cyclopropanecarboxylic Acid], in series [1], the “colonic bioavailability” value is given as “substantial”.
The molecule `O=C(NC1(C(=O)O)CC1)OCCOC(=O)c1ccccc1` [Compound 4, 1-[(Phenylcarbonyloxyethoxy)carbonylamino]cyclopropanecarboxylic Acid] returned a melting point of 173.8 to 175.8 °C. For the same molecule, in series [1], the “colonic bioavailability” value was “substantial”.
With `CC(C)CC(=O)OC(C)OC(=O)NC1(C(=O)O)CC1` (stereo not drawn) [Compound 5, 1-[1-(3-Methyl-butyryloxy)-ethoxycarbonylamino]-cyclopropanecarboxylic Acid], the melting point lay within 116.6 to 119.1 °C.
Still for that read-out and setting: the figure for `CCCC(=O)OC(C)OC(=O)NC1(C(=O)O)CC1` (stereo not drawn) [Compound 7, 1-(1-Butyryloxy-ethoxycarbonylamino)-cyclopropanecarboxylic Acid] is 90.4 to 93.4 °C; for `CCCCC(=O)OC(C)OC(=O)NC1(C(=O)O)CC1` (stereo not drawn) [Compound 8, 1-(1-Pentanoyloxy-ethoxycarbonylamino)-cyclopropanecarboxylic Acid] it is 148 to 151.1 °C; for `O=C(NC1(C(=O)O)CC1)OCCOC(=O)C1CCCCC1` [Compound 10, 1-[(Cyclohexylcarbonyloxyethoxy)carbonylamino]cyclopropanecarboxylic Acid] it is 123.6 to 125.3 °C.
Take `CC(C)C(OC(=O)NC1(C(=O)O)CC1)OC(=O)C1CCCCC1` (stereo not drawn) [Compound 11, 1-[(1-Cyclohexylcarbonyloxy-2-methylpropoxy)carbonylamino]cyclopropanecarboxylic Acid]: the melting point lay in the range of 156 to 158.5 °C. Besides, the “colonic bioavailability” value in series [1] is “substantial”.
For the molecule `CC(C)C(OC(=O)NC1(C(=O)O)CC1)OC(=O)c1ccccc1` (stereo not drawn) [Compound 12, 1-[(2-Methyl-1-phenylcarbonyloxypropoxy)carbonylamino]cyclopropanecarboxylic Acid], the “colonic bioavailability” value in series [1] is reported as “substantial”.
With `CCCCCCC(=O)OCCOC(=O)NC1(C(=O)O)CC1` [Compound 13, 1-[(Heptanoyloxyethoxy)carbonylamino]cyclopropanecarboxylic Acid], the melting point is 112.6 to 113.2 °C.
In the case of `COc1ccc(C(=O)OCCOC(=O)NC2(C(=O)O)CC2)cc1OC` [Compound 14, 1-{[(3,4-Dimethoxyphenylcarbonyloxy)ethoxy]carbonylamino}cyclopropanecarboxylic Acid], the melting point was in the range of 171.8 to 173.6 °C.
`O=C(/C=C/c1ccccc1)OCCOC(=O)NC1(C(=O)O)CC1` [Compound 16, 1-{[((2E)-3-Phenylprop-2-enoyloxy)ethoxy]carbonylamino}cyclopropanecarboxylic Acid] displayed a melting point of 169.3 to 172.2 °C. For the same molecule, the “colonic bioavailability” value in series [1] is listed as “substantial”.
`O=C(CCc1ccccc1)OCCOC(=O)NC1(C(=O)O)CC1` [Compound 17, 1-{[(3-Phenylpropanoyloxy)ethoxy]carbonylamino}cyclopropanecarboxylic Acid] yielded a melting point of 132.9 to 134.4 °C.
`CC(C)C(OC(=O)/C=C/c1ccccc1)OC(=O)NC1(C(=O)O)CC1` (stereo not drawn) [Compound 18, 1-{[1-((2E)-3-Phenylprop-2-enoyloxy)-2-methylpropoxy]carbonylamino}cyclopropanecarboxylic Acid] registered a melting point of 147.8 to 150.2 °C. Moreover, the “colonic bioavailability” value in series [1] is reported as “substantial”.
`Cc1ccc(C(=O)OCCOC(=O)NC2(C(=O)O)CC2)cc1` [Compound 21, 1-{[(4-Methylphenylcarbonyloxy)ethoxy]carbonylamino}cyclopropanecarboxylic Acid] yielded a melting point of 177.7 to 182.5 °C.
`CC(C)C(=O)OC(OC(=O)NC1(C(=O)[O-])CC1)C(C)C.[Na+]` (stereo not drawn) [Compound 23, 1-{[2-Methyl-1-(2-methylpropanoyloxy)propoxy]carbonylamino}Sodium Cyclopropanoate]: the “colonic bioavailability” value in series [1] was “substantial”.
